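48-hour exposure; five concentrations; linearly interpolated endpoints. GI50: concentration for 50% inhibition of growth.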 Calls of active or inactive are those of the source. Rule as the data show it: active = GI50 up to about 1.1 µM and inactive = higher.
How the values were obtained:
Assay in all cases: NCI-60 cell line screen, 48 h
[1] = test system: A498
[2] = test system: A549
[3] = test system: ACHN
[4] = test system: COLO 205
[5] = test system: EKVX
[6] = test system: HCT-15
[7] = test system: KM12
[8] = test system: MOLT-4
[9] = test system: NCI-H226
[10] = test system: OVCAR-3
[11] = test system: PC-3
[12] = test system: SF-268
[13] = test system: SK-MEL-2
[14] = test system: SK-OV-3
[15] = test system: SNB-75
[16] = test system: SR
[17] = test system: T47D
[18] = test system: UACC-257
[19] = test system: MDA-N
[20] = test system: SN12C

SMILES	GI50 [1]	GI50 [2]	GI50 [3]	GI50 [4]	GI50 [5]	GI50 [6] [µM]	GI50 [7]	GI50 [8]	GI50 [9]	GI50 [10]	GI50 [11]	GI50 [12]	GI50 [13]	GI50 [14]	GI50 [15]	GI50 [16]	GI50 [17]	GI50 [18]	GI50 [19]	GI50 [20]
O=C1CNc2cc(N3CCOCC3)ccc2N1	60.7 µM (inactive)	> 100 µM (inactive)	> 100 µM (inactive)	> 100 µM (inactive)	2.91 µM (inactive)	> 100	> 100 µM (inactive)	> 100 µM (inactive)	> 100 µM (inactive)	> 100 µM (inactive)	> 100 µM (inactive)	> 100 µM (inactive)	> 100 µM (inactive)	> 100 µM (inactive)	> 100 µM (inactive)	> 100 µM (inactive)	> 100 µM (inactive)	> 100 µM (inactive)	–	–
Nc1cc(OCC2CCCCC2)nc(N)n1	–	93.8 µM (inactive)	> 100 µM (inactive)	87.3 µM (inactive)	57.1 µM (inactive)	> 100	> 100 µM (inactive)	82.2 µM (inactive)	> 100 µM (inactive)	> 100 µM (inactive)	> 100 µM (inactive)	> 100 µM (inactive)	> 100 µM (inactive)	> 100 µM (inactive)	61.2 µM (inactive)	–	–	76.9 µM (inactive)	> 100 µM (inactive)	> 100 µM (inactive)
CCOC(=O)NN1C(=O)C(=P(c2ccccc2)(c2ccccc2)c2ccccc2)C(C(=O)OCC)=C1C	> 100 µM (inactive)	> 100 µM (inactive)	> 100 µM (inactive)	> 100 µM (inactive)	> 100 µM (inactive)	> 100	> 100 µM (inactive)	> 100 µM (inactive)	> 100 µM (inactive)	> 100 µM (inactive)	–	> 100 µM (inactive)	> 100 µM (inactive)	> 100 µM (inactive)	> 100 µM (inactive)	> 100 µM (inactive)	–	> 100 µM (inactive)	–	> 100 µM (inactive)
CC(=O)O[C@H]1CC2C(C3CCC(C(C)CCC(N)=O)[C@]31C)[C@H](OC(C)=O)C[C@@H]1CC3(CC[C@]21C)OOC1(CC[C@]2(C)C4C[C@H](OC(C)=O)[C@]5(C)C(C(C)CCC(N)=O)CCC5C4[C@H](OC(C)=O)C[C@@H]2C1)OO3 (stereo partly drawn)	–	1.43 µM (inactive)	1.62 µM (inactive)	1.11 µM (active)	1.67 µM (inactive)	1.48	1.66 µM (inactive)	1.11 µM (active)	1.33 µM (inactive)	1.42 µM (inactive)	1.41 µM (inactive)	1.75 µM (inactive)	1.84 µM (inactive)	2.06 µM (inactive)	1.56 µM (inactive)	–	–	1.49 µM (inactive)	1.65 µM (inactive)	1.79 µM (inactive)
CC1(C)CCC[C@]2(C)[C@@H]1CC[C@@]13O[C@@H]1C1=C(CO)C(=O)OC1=C[C@@H]23	27.2 µM (inactive)	10.4 µM (inactive)	29.2 µM (inactive)	16.5 µM (inactive)	13.9 µM (inactive)	14.4	11.9 µM (inactive)	17.3 µM (inactive)	15.7 µM (inactive)	–	14.9 µM (inactive)	15.2 µM (inactive)	22.8 µM (inactive)	20.6 µM (inactive)	30.5 µM (inactive)	–	–	18.2 µM (inactive)	–	12.9 µM (inactive)
C/C(=N\N=C(/S)SCc1ccccc1)c1ccccn1	1.41 µM (inactive)	0.17 µM (active)	< 0.01 µM (active)	< 0.01 µM (active)	< 0.01 µM (active)	< 0.01	0.266 µM (active)	< 0.01 µM (active)	< 0.01 µM (active)	< 0.01 µM (active)	< 0.01 µM (active)	0.184 µM (active)	1.27 µM (inactive)	< 0.01 µM (active)	2.92 µM (inactive)	< 0.01 µM (active)	–	< 0.01 µM (active)	0.971 µM (active)	< 0.0269 µM (active)
CCCCNC(=O)C1C2CCC(O2)C1C(=O)O (stereo not drawn)	12.7 µM (inactive)	31 µM (inactive)	22.6 µM (inactive)	16.6 µM (inactive)	13.7 µM (inactive)	23.7	56.2 µM (inactive)	18.1 µM (inactive)	19 µM (inactive)	16 µM (inactive)	–	17.7 µM (inactive)	27.5 µM (inactive)	23.1 µM (inactive)	16.8 µM (inactive)	18.8 µM (inactive)	–	22.8 µM (inactive)	–	14 µM (inactive)
Cc1cccc2c(=O)c([Se]c3coc4c(C)cccc4c3=O)coc12	24.6 µM (inactive)	7.71 µM (inactive)	18.4 µM (inactive)	> 10 µM (inactive)	17.3 µM (inactive)	19.4	13.7 µM (inactive)	38.6 µM (inactive)	16.9 µM (inactive)	25.2 µM (inactive)	–	19.6 µM (inactive)	18.5 µM (inactive)	17.6 µM (inactive)	16.7 µM (inactive)	14.8 µM (inactive)	–	18.2 µM (inactive)	–	18.5 µM (inactive)
